Laboratory results as given in the supplement of paper PMC10307832.

Experiments:
Assay in all cases: relative viability (nuclei count vs DMSO), 5 days (fraction); higher = more cells survive
Veliparib + Crizotinib = compound: C[C@]1(c2nc3c(C(N)=O)cccc3[nH]2)CCCN1 [Veliparib] + C[C@@H](Oc1cc(-c2cnn(C3CCNCC3)c2)cnc1N)c1c(Cl)ccc(F)c1Cl [Crizotinib] (partner 1 µM)
Method in brief: (§1)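 Lung cancer cell lines were pin-tool dosed in 1536-well plates on the day after seeding, with either a lone drug or a fixed anchor-drug dose plus five library-drug doses (not always all listed) in √10 steps. Nuclei were counted on 4× images after 5 days. Relative viability is the ratio of treated-well to vehicle-well nuclei counts, with each value a median of duplicate plates.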

[1] = compound: COC1=CC=C(C=C1)CN2C=CC3=C2C=C(C=C3)C(=O)NO + CC1(C)CCC(c2ccc(Cl)cc2)=C(CN2CCN(c3ccc(C(=O)NS(=O)(=O)c4ccc(N[C@H](CCN5CCOCC5)CSc5ccccc5)c(S(=O)(=O)C(F)(F)F)c4)cc3)CC2)C1 [Navitoclax] (partner 0.5 µM)
Method in brief: as §1

Veliparib + Linsitinib = compound: C[C@]1(c2nc3c(C(N)=O)cccc3[nH]2)CCCN1 [Veliparib] + C[C@]1(O)C[C@@H](c2nc(-c3ccc4ccc(-c5ccccc5)nc4c3)c3c(N)nccn32)C1 [Linsitinib] (partner 1 µM)
Method in brief: as §1

[2] = compound: COC1=CC=C(C=C1)CN2C=CC3=C2C=C(C=C3)C(=O)NO + CC(=O)c1c(C)c2cnc(Nc3ccc(N4CCNCC4)cn3)nc2n(C2CCCC2)c1=O [Palbociclib] (partner 0.5 µM)
Method in brief: as §1

Cell Line	relative viability (Veliparib + Crizotinib; first compound 0.02 µM)	relative viability (Veliparib + Crizotinib; first compound 0.06325 µM)	relative viability (Veliparib + Crizotinib; first compound 0.2 µM)	relative viability (Veliparib + Crizotinib; first compound 0.6325 µM)	relative viability (Veliparib + Crizotinib; first compound 2 µM)	relative viability ([1]; first compound 0.08 µM)	relative viability ([1]; first compound 0.253 µM)	relative viability ([1]; first compound 0.8 µM)	relative viability ([1]; first compound 2.53 µM)	relative viability ([1]; first compound 8 µM)	relative viability (Veliparib + Linsitinib; first compound 0.02 µM)	relative viability (Veliparib + Linsitinib; first compound 0.06325 µM)	relative viability (Veliparib + Linsitinib; first compound 0.2 µM)	relative viability (Veliparib + Linsitinib; first compound 0.6325 µM)	relative viability (Veliparib + Linsitinib; first compound 2 µM)	relative viability ([2]; first compound 0.08 µM)	relative viability ([2]; first compound 0.253 µM)	relative viability ([2]; first compound 0.8 µM)	relative viability ([2]; first compound 2.53 µM)	relative viability ([2]; first compound 8 µM)
201T	1.03	0.978	0.964	0.992	0.997	1.19	1.24	1.22	1.23	1.19	1.08	1.06	0.995	1.02	1.01	0.338	0.368	0.371	0.358	0.365
A549	0.768	0.699	0.792	0.61	0.891	1.22	1.26	1.25	1.15	1.07	0.62	0.576	0.591	0.626	0.586					
A-427	0.884	0.837	0.864	0.83	0.836		1	1.02	1.04	0.806	1.21	1.05	1.04	1.03	1.14	0.291		0.538	0.494	0.501
ABC-1		0.987	0.846	0.953	0.962							0.767	0.807	0.759	0.892		0.768	0.713	0.77	0.615
BEN	0.735	0.97	1.01	0.783	0.884	0.0556	0.0746	0.0683	0.156	0.0729	0.803	0.875	1.15	0.928	0.946	0.468	0.466	0.487	0.52	0.489
CAL-12T	0.702	0.542	0.589	0.616	0.645	0.964	1.29	1.25	1.24	1.23	0.356	0.823	0.775	0.765	0.817	0.424	0.517	0.585	0.325	0.566
COR-L23	0.637	0.605	0.718	0.584	0.651	0.77	0.945	1.04	1.11	1.01	1.1	0.886	0.9	0.656	0.816	0.23	0.323	0.316	0.29	0.26
COR-L 105	0.881	0.583	0.921	0.786	0.696		1.15	0.844	0.851	0.551	0.984	0.86	0.982	0.915	0.915	0.33	0.435	0.449	0.416	0.397
Calu-6	0.817	0.735	0.882	0.691	0.796	0.809	0.84	0.805	0.828	0.698	0.582	0.826	0.999	0.963	0.987					
ChaGo-K-1		1.05	1.08	1.06	1.09		0.932	1.13	0.911	0.887							0.914	0.928	0.904	0.874
EBC-1	0.194	0.231	0.213	0.186	0.233	0.399	0.406	0.378	0.304	0.313	0.771	0.807	0.723	0.793	0.97					
EKVX	0.65	0.744	1.04	0.977	0.913	0.934	1	0.968	0.988	0.952	0.948	0.912	0.952	0.86	1.02		0.408	0.387	0.384	0.351
EMC-BAC-2	0.771	0.649	0.754	0.737	0.779	0.993	1.21	1.16	1.21	1.15	0.841	0.801	0.886	0.793	0.828	0.401		0.528	0.511	0.459
EPLC-272H		0.798	0.855	0.941	0.904	0.7	1.06	1.13	1.05	1.18		1.11	1.18	1.08	1.24		0.325	0.314	0.311	0.319
H3255	0.898	0.904	0.814	0.829	0.969	0.574	0.501	0.503	0.541	0.46	0.882	0.981	0.953	0.833	0.981	0.301	0.304	0.316	0.311	0.32
HARA	1.03	0.996	0.954	0.848	1.06	0.479	1.1	1.13	1.17	1.14	1.15	0.992	0.908	0.743	1.07	0.153	0.218	0.243	0.3	0.238
HCC-15	0.803	0.86	0.847	0.752	0.825	0.605	0.726	0.717	0.741	0.675	0.928	0.84	0.909	0.83	0.921	0.712	0.716	0.733	0.745	0.739
HCC-44	0.834	0.708	0.85	0.74	0.835	0.891	0.976	0.872	0.883	0.989	0.665	0.5	0.636	0.622	0.694	0.936	0.926	1.01	0.978	0.969
